One data set in a line: in vitro. The following applies: human, hela cells, % viability.
Take `c1ccc2c(OCc3nc4c5c6c(sc5ncn4n3)CCCCC6)cccc2c1` [CBK264151]: the viability (in general, a read-out of living cells in per cent, often relative to untreated cells) at 28.5 h, 10 µM was 99.6%. Still for that read-out and setting: then `CCOc1ccc(CN2CCN(CCCc3ccccc3)CC2)cc1` [CBK264153G], with 92.7%. Same read-out and setting: then `COc1ccc2[nH]c(NCCCO)nc2c1` [CBK264155], with 91.2%.

For the compound `Cc1ccc(NC(=O)C(=O)NCCCn2ccnc2)cc1C` [CBK264157], the viability at 28.5 h, 10 µM came out at 98%. In the case of `CCOC(=O)C1CCCN(CCC(=O)Nc2cccc(C)c2)C1` (centres unmarked) [CBK264158C], the viability at 28.5 h, 10 µM came to 107%. With `COc1cccc(CN2CCN(S(=O)(=O)c3ccccc3[N+](=O)[O-])CC2)c1OC` [CBK264162], the viability at 28.5 h, 10 µM stood at 87.4%. On to `CC(=O)Nc1ccc(S(=O)(=O)N2CCN(S(=O)(=O)c3ccccc3)CC2)cc1` [CBK264163], for which the viability at 28.5 h, 10 µM was 94%. Same read-out and setting: the same measure for `CC(=O)Nc1ccc(S(=O)(=O)N2CCN(C(=O)COc3ccc4ccccc4c3)CC2)cc1` [CBK264164]: 103%. Still for that read-out and setting: then `CCCS(=O)(=O)N1CCN(Cc2cc(Br)ccc2O)CC1` [CBK264165G], with 102%; and `Cc1cc(C=O)c(C)n1-c1ccc(Oc2ccc([N+](=O)[O-])cn2)cc1` [CBK264167], with 99.9%. On to `O=[N+]([O-])c1ccccc1S(=O)(=O)N1CCN(Cc2cccnc2)CC1` [CBK264168G], for which the viability at 28.5 h, 10 µM stood at 68.3%. Still for that read-out and setting: the same measure for `O=[N+]([O-])c1ccccc1S(=O)(=O)N1CCN(C2CCCCCC2)CC1` [CBK264171G]: 95.4%; for `O=C(CN1CCCCC1)Nc1ccc(NC(=O)CN2CCCCC2)c(Cl)c1` [CBK264173]: 111%. The same measure, in the same setting: the same measure for `COc1ccc(OC)c(-c2nc(Nc3ccc(Cl)cc3Cl)sc2CC(=O)O)c1` [CBK264175]: 103%; for `CCNCCNc1ccc([N+](=O)[O-])cc1` [CBK264179C]: 94.1%.

For `O=C1c2ccccc2C(=O)N1Cc1ccc(S(=O)(=O)NCc2ccc3c(c2)OCO3)cc1` [CBK264180], the viability at 28.5 h, 10 µM amounted to 98.3%. The same measure, in the same setting: then `CN(C)CCCNC(=S)Nc1ccc(Cl)cc1Cl` [CBK264183], with 92.5%; and `CC(=O)NCCNc1ccc(C(=O)O)cc1[N+](=O)[O-]` [CBK264184], with 87.8%. On the same count and under the same terms, the same measure for `CCOc1ccc(Nc2nc(-c3ccc(C)cc3C)c(CC(=O)O)s2)cc1` [CBK264187]: 62.5%. The same measure, in the same setting: the same measure for `COc1ccc(-n2nc3cc(C)c(NC(=S)NC(=O)c4oc5ccccc5c4C)cc3n2)cc1` [CBK264188]: 103%.

Consider `NC(=O)c1c(NC(=O)C2CC(=O)OC23CCCCC3)sc2c1CCCCC2` (centres unmarked) [CBK264189], for which the viability at 28.5 h, 10 µM came out at 102%. Same read-out and setting: the same measure for `Cc1ccc(S(=O)(=O)Nc2ccccc2CNc2ccccn2)cc1` [CBK264198]: 91.9%; for `COc1ccc(C)cc1NC(=O)CCN1CCN(CCO)CC1` [CBK264199]: 97.4%; for `Cc1ccc(OCC(=O)N2CCN(S(=O)(=O)c3ccc4ccccc4c3)CC2)cc1` [CBK264200]: 115%.

Turning to `Cc1nc(SCc2ccccc2)nc(O)c1CC(=O)O` [CBK264203], the viability at 28.5 h, 10 µM was found to be 96.8%. Same read-out and setting: then `CCCCc1cc(=O)oc2cc(OCC(=O)O)ccc12` [CBK264205], with 99.4%; and `COc1cccc(OCC(=O)Nc2ccc(Cl)cc2C(=O)O)c1` [CBK264208], with 105%. The same measure, in the same setting: the same measure for `O=C(O)C1CC=CCC1C(=O)NCc1ccc2c(c1)OCO2` (centres unmarked) [CBK264209]: 96.4%; for `N=c1c2c3c(sc2ncn1CCCn1ccnc1)CCCC3` [CBK264211]: 95.5%.

Still in this data set, the particulars now being: human, hela cells, % viability, bulk resorufin, single well.
With `O=C1NC(=S)NC(=O)C1=Cc1ccc(OCc2ccccc2)c(C(=O)O)c1` [CBK264159], the viability at 28.5 h, 10 µM was 117%. The same measure, in the same setting: then `O=C1NC(=O)C(=Cc2cc(Br)ccc2OCc2cccc(F)c2)C(=O)N1` [CBK264160], with 104%. Still for that read-out and setting: then `COc1cc(/C=C2\C(=O)NC(=O)N(c3cc(C)ccc3C)C2=O)ccc1O` [CBK264161], with 91%.

Values taken from publication PMC12040169 (PLOS Biology, 2025).
